Laboratory results taken from patent US9395368B2, “Methods, agents and peptides for inducing an immune response to matrix metalloproteinase-2 expressing tumors” (New York University, priority 2010, dated 2016).

System: MMP-2-specific CD4+ T cell clones
Experiment: Epitope specificity of MMP-2-specific CD4+ T cell clones with individual peptides (ELISA)
Format: cell-based, human
Settings: individual peptides 2 μM; TNFα, IL-4 and IFNγ production
Procedure: (A) MMP-2-specific CD4^+ T cell clones were generated and characterized as described in Experimental Procedures. Clone HD9828/52 is shown as a representative example. Epitope specificities were assessed after overnight stimulation with individual peptides (2 μM). IFNγ, TNFα and IL-4 release was measured by ELISA. (B) All MMP-2-specific CD4^+ T cell clones were characterized by staining for CD4, CD8 and TCR Vβ chain expression. Clone HD9828/52 is shown as a representative example. (C) To establish HLA class-II isotype restriction, CD4^+ T cell clones were stimulated by corresponding peptides in the absence or presence of blocking mAb (10 μg/mL) for HLA-DP, HLA-DQ or HLA-DR and IFNγ release was measured by ELISA. (D) Purified CD4^+/CD25^− cells were stimulated for 12 days by autologous DCs incubated with MMP-2 protein (10 μM) and subsequently washed. MMP-2-specific CD4^+ T cells were detected by intracellular staining of IFNγ, TNFα and IL-4 after 6 hours of stimulation with MMP-2 peptide pool (2 μM). Numbers in the upper right quadrants are the percentages of each population.
All 19 MMP-2-specific CD4^+ T cell clones were characterized for epitope specificity by testing clone responses to every peptide separately. TCR Vβ expression was assessed by surface staining HLA class-II isotype restriction was determined by using blocking mAb to HLA-DP, -DQ and -DR. Results listed for the T cell clone HD9828/MC1/52 are shown in FIG. 1 and FIG. 11, and are highlighted in bold italics.
T Cell culture, stimulation and priming. Peripheral blood mononuclear cells (PBMCs) were purified from healthy donor-(HD) or cord blood donor-(CB) derived buffy coats (New York Blood Center) by Ficoll-Paque Plus (GE Healthcare) centrifugation. CD4^+/CD25^− cells were enriched (>90%) by magnetic cell sorting (Miltenyi Biotec) and primed/stimulated for 12-15 days either with irradiated (35Gy) autologous CD4^− cells or with autologous mature DCs in IMDM (GIBCO) supplemented with 1 mM HEPES (Life Technologies), 2 mM L-glutamine (Sigma), […] (Sigma) and 5% heat inactivated pooled human serum (PHS; Valley Biomedical) in the presence of rhIL-2 (10 UI/mL) and IL7 (5 ng/mL) (R&D Systems). Antigen presenting cells (CD4^− cells or DCs) were loaded either with peptides (2 μM) or with the MMP-2 protein (10 μg/mL) for 2 and 5 h, respectively. DCs were matured using the TLR3 agonist poly(I:C) at 5 μg/mL/10^6 DCs (Amersham). To generate T cell clones, we originally relied on our published methodology (Godefroy et al., 2006; Godefroy et al., 2007; the entire contents of each of which is incorporated herein by reference), involving enrichment of IFNγ-secreting cells upon short-term culture and peptide stimulation to generate MMP-2 responsive clones. Briefly, CD4^+ T cells were stimulated by CD4^− cells irradiated and pulsed with peptides for 12 days in the presence of rhIL-2 and rhIL-7. CD4^+ T cells were then restimulated with peptides for 3 hours before capturing IFNγ-secreting specific cells using a bispecific antibody coating T cells and capturing produced IFNγ. Positive cells were purified magnetically before being cloned. Although MMP-2-specific cells could be isolated, it was realized that IFNγ secretion was marginal compared to their secretion of IL-4 and TNFα. IFNγ-secreting cells in response to MMP-2 peptide pool were enriched by cytokine-guided magnetic cell sorting (Miltenyi Biotec) as described above and cloned the following day by limiting dilution in the presence of irradiated allogeneic PBMCs, 1 μg/mL phytohemagglutinin-L (Sigma) and 150 UI/mL rhIL-2. Tumor infiltrating lymphocytes (TILs) were provided by Pr. F. Jotereau and B. Dréno. They were obtained from tumor-invaded lymph nodes of melanoma patients (stage Mb) and expanded ex vivo. These patients received autologous TILs and IL-2 infusions in a clinical trial (Labarriere et al., 2002). […]

## AFNWSKNKKTYIFAGDKFWR (listed as Homo sapiens) [P571-590]
  recognition by CD4+ T cell clones: recognized

## ESCTSAGRSDGKMWCATTAN (listed as Homo sapiens) [P361-380]
  recognition by CD4+ T cell clones: recognized

## FFKGAYYLKLENQSLKSVKF (listed as Homo sapiens) [P631-650]
  recognition by CD4+ T cell clones: recognized

## GCLLSHAAAAPSPIIKFPGD (listed as Homo sapiens) [P21-40]
  recognition by CD4+ T cell clones: recognized

## GFPKLIADAWNAIPDNLDAV (listed as Homo sapiens) [P601-620]
  recognition by CD4+ T cell clones: recognized

## GYPKPLTSLGLPPDVQRVDA (listed as Homo sapiens) [P551-570]
  recognition by CD4+ T cell clones: recognized

## MEALMARGALTGPLRALCLL (listed as Homo sapiens) [P1-20]
  recognition by CD4+ T cell clones: recognized

## RIHDGEADIMINFGRWEHGD (listed as Homo sapiens) [P161-180]
  recognition by CD4+ T cell clones: recognized

## TGPLRALCLLGCLLSHAAAA (listed as Homo sapiens) [P11-30]
  recognition by CD4+ T cell clones: recognized

## VAPKTDKELAVQYLNTFYGC (listed as Homo sapiens) [P41-60]
  recognition by CD4+ T cell clones: recognized

## VDLQGGGHSYFFKGAYYLKL (listed as Homo sapiens) [P621-640]
  recognition by CD4+ T cell clones: recognized
